Data: US20050147691A1, “Catalytic oxidation of peroxy salts” (priority 2002, published 2005)

Conditions: DPS 1 mM, ambient temperature
Method: The oxidation performance of the oxidizer or oxidizer based formulations was determined by fading of the crystal violet dye solution color. The fading of the color was monitored by measuring the UV absorbance of the dye solution at 589 nm, before and after addition of oxidizer or oxidizer based formulation. The change in absorbance or fading of color of the dye solution, corresponds to the oxidation activity of the oxidizer. The greater the change in absorbance, more reactive is the oxidizer composition.
The oxidation activity was determined by measuring the destruction of crystal violet dye color at a wavelength of 589 nm by these formulations.
Crystal Violet Dye solution: Prepare crystal violet dye solution by dissolving 5 mg of crystal violet dye in 1000 mls of deionized water. Dilute the solution accordingly to get a sharp peak at 589 nm.
Procedure: • 1. […] Into 1500 mls beaker add 1000 mls of crystal violet dye solution. • 3. Using Hach spectrophotometer measure initial absorbance of the dye solution at 589 nm. • 4. […] Measure the absorbance at 589 nm after 1 and 2 hours reaction time. • 6. Calculate the percent decrease in crystal violet dye absorbance at 589 nm using the formula: [formula] Where Absi=Absorbance of crystal violet dye solution at the start of the experiment […]

| SMILES | effect on the oxidation performance of sodium dipersulfate, in words |
| --- | --- |
| O.O.O.O.O.O=S(=O)([O-])[O-].[Cu+2] [copper sulfate, copper sulfate pentahydrate] | increased |
| O.O.O.O.O.O.O.O=S(=O)([O-])[O-].[Zn+2] [zinc sulfate, zinc sulfate heptahydrate] | no effect |
